# Tests used:
# colonic mucus layer = assay: Murine GVHD model: colonic mucus layer thickness (PAS staining); type: in vivo, mice; conditions: day 18; vs untreated GVHD mice and syngeneic mice
# Method: Next, assessed was the impact of meropenem treatment on the dense colonic mucus layer of mice with GVHD.
# Allo-HSCT recipient mice were treated with meropenem as in FIG. 15A and with xylose from days 13 to 20 (FIG. 18F). […] Importantly, in vitro, growth of mouse and human-derived BT in carbohydrate-poor media was augmented by xylose (FIG. 23B).
# Xylose administration. D-(+)-xylose (X3877, SIGMA-ALDRICH®) was dissolved in phosphate buffer pH 8.0 with meropenem or in water without meropenem and given at a concentration of 0.5% from days 13 to 20 after allo-HSCT.
# Histological and immunohistochemistry analysis. […] Pathology scores were quantified by a blinded pathologist. […] Sections were imaged using an APERIO® AT2.
# [1] = type: in vivo, mice
# Method: The mucus layer provides a critical contribution to the intestinal barrier by excluding bacteria from the intestinal lumen adjacent to the intestinal epithelium. […] Translocating bacteria included Enterococcus faecalis, Enterococcus gallinarum, Lactobacillus johnsonii, and BT (FIGS. 17D-17E).
# Immunostaining and fluorescence in situ hybridization. […] Paraffin-embedded sections were dewaxed and hydrated. Sections were incubated with 1 μg Alexa Fluor 594-conjugated EUB338 (5′-[…]-3′; SEQ ID NO:1) for detection of all bacteria in 200 μL of hybridization buffer (750 mM NaCl, 100 mM Tris-HCl (pH 7.4), 5 mM EDTA, 0.01% BSA, 10% dextran sulfate) at 40° C. for 16 hours. Sections were rinsed in wash buffer (50 mM NaCl, 4 mM Tris-HCl (pH 7.4), 0.02 mM EDTA), washed at 45° ° C. for 20 min, stained with anti-Muc2 antibody [C3] (GTX100664, GeneTex) and counterstained with DAPI (Vector Laboratories). Photographs of sections were obtained using a fluorescent microscope (Nikon NIS Elements, Advanced Research version 4.20).
# Microbiologic analysis of bacterial translocation. Mesenteric lymph nodes (MLNs) were harvested from mice and homogenized in PBS and cultured anaerobically on BHI plates containing yeast extract and 5% sterilized rumen fluid (THERMO FISHER […]™)) and Columbia blood agar plates (BD) for 4 days at 37° ° C. Colony-forming units (CFUs) were counted and adjusted per organ. […]
# [2] = system: murine BT GH2 β-galactosidase, GH33 sialidase, GH29 α-L-fucosidase; assay: RNA sequencing of stool from allo-HSCT mice: BT PUL expression; type: in vivo, Bacteroides thetaiotaomicron; conditions: day 18, allo-HSCT mice with vs without meropenem
# Method: Thus, in some cases, meropenem treatment during GVHD may lead to alterations in the behavior of BT. To evaluate this further, RNA sequencing of stool samples from allo-HSCT mice without and with meropenem treatment was performed. Also examined was the genome of mouse-derived BT isolate MDA-JAX BT001 (FIG. 23), and open reading frames (ORF) were identified, which were then assigned to polysaccharide utilization loci (PUL) using the Polysaccharide-Utilization Loci DataBase (PULDB) (41).
# RNA sequencing and analysis. Approximately 30 mg of stool was freshly collected in 700 μL of ice cold QIAZOL® containing 200 μL of 0.1 mm diameter Zirconia Silica beads (11079101z, BioSpec). Samples were bead beaten twice for 2 min with a 30 second interval recovery. Samples were then centrifuged at 12,000 g for 1 min and the supernatant was collected for RNA isolation using the RNeasy mini kit (74104, QIAGEN®). […] RNA quantity and quality was determined using an Agilent 4200 TapeStation system (Agilent). […] The cDNA libraries were sequenced on the […]® MISEQ™ system to produce 1×300 bp single-end reads, resulting in ˜1 million reads per sample. […] The total reads of mouse stool samples were 950923±113406 (mean±standard deviation). […] Aligned mRNA expression changes were calculated using the Mann-Whitney U test in R software version 3.6.0 via RStudio version 1.2.1335. […]
# [3] = human, in vivo
# Method: In this study, data from 295 patients with acute myeloid leukemia (AML) or myelodysplastic syndrome (MDS) who underwent allo-HSCT with tacrolimus and methotrexate as GVHD prophylaxis following conditioning therapy with fludarabine and 5 busulfan from 2011 to 2016 were retrospectively examined. The incidence of acute intestinal GVHD until day 100 after transplant was evaluated and compared were patients who received neither cefepime nor meropenem, those who received cefepime alone, those who received meropenem alone, and those who received both cefepime and meropenem during the period from days −10 to 30 relative to allo-HSCT infusion.
# Retrospective study design. 295 patients with acute myeloid leukemia (AML) or myelodysplastic syndrome (MDS) underwent allogeneic hematopoietic stem cell transplantation (allo-HSCT) with fludarabine plus busulfan as conditioning therapy and tacrolimus and methotrexate as GVHD prophylaxis from 2011 and 2016 and were analyzed retrospectively. Patients were classified by antibiotic exposures, including those who received neither cefepime nor meropenem, those who received cefepime alone, those who received meropenem alone and those who received both cefepime and meropenem from day −10 to day 30 after allo-HSCT. Acute GVHD was diagnosed by clinical and/or pathological findings, and graded according to standard criteria (56).
structure (smiles),measurement,setting,value
C[C@@H](O)[C@H]1C(=O)N2C(C(=O)O)=C(S[C@@H]3CN[C@H](C(=O)N(C)C)C3)[C@H](C)[C@H]12 [meropenem],colonic mucus layer thickness,colonic mucus layer,significantly thinned colonic mucus layer
same,bacterial loads cultivated from MLNs,[1]; day 18,higher bacterial loads
same,bacteria in mucus layer and lamina propria (16S FISH),[1]; mice with GVHD,dissemination of bacteria into the mucus layer and lamina propria of the colon
same,"expression in murine BT of GH2 β-galactosidase, GH33 sialidase and GH29 α-L-fucosidase",[2],upregulated expression
same,"Acute GVHD Grade 0, number of patients",[3],13
same,"Acute GVHD Grade 0, percentage of patients",[3],(41%)
same,"Acute GVHD Grade I, number of patients",[3],5
same,"Acute GVHD Grade I, percentage of patients",[3],(16%)
same,"Acute GVHD Grade II, number of patients",[3],10
same,"Acute GVHD Grade II, percentage of patients",[3],(31%)
same,incidence of acute intestinal GVHD,[3],significantly higher
same,"Acute GVHD Grade III-IV, number of patients",[3]; iv,4
same,"Acute GVHD Grade III-IV, percentage of patients",[3]; iv,(13%)
same,survival after allo-HSCT,meropenem in drinking water days 3 to 15 vs control allo-HSCT mice,significantly worsened survival
same,GVHD histological scores in the colon,"mouse, in vivo",significantly higher
same,GVHD histology in the small intestine and liver,"mouse, in vivo",not substantially different
same,epithelial damage in the colon (H&E),"mouse, in vivo",severe epithelial damage in the colon
